{"source": "patent US20190279737A1", "about": "“METHOD OF DISCOVERING NEW DRUG CANDIDATE TARGETING DISORDER-TO-ORDER TRANSITION REGION AND APPARATUS FOR DISCOVERING NEW DRUG CANDIDATE” (INDUSTRY-UNIVERSITY COOPERATION FOUNDATION HANYANG …, priority 2016, published 2019)", "origin": "cited, not measured here", "molecular_target": "Myc (Homo sapiens, UniProt P01106)", "sequence (P01106 16-454, species assumed)": "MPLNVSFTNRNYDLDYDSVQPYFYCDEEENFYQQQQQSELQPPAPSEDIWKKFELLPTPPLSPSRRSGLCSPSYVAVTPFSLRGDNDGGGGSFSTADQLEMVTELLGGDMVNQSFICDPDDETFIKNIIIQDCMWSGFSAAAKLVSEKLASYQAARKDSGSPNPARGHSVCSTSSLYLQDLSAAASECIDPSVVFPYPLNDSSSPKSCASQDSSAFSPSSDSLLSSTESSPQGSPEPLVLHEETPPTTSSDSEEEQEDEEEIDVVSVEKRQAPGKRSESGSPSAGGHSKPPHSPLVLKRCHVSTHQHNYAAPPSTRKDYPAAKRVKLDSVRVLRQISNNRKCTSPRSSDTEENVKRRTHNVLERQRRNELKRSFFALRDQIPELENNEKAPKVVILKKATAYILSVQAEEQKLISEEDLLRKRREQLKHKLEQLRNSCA", "settings": "Follis et al. 2008"}
{"compound": "CCc1ccc(/C=C2/SC(=S)NC2=O)cc1", "note": "[10058-F4]", "values": [{"measurement": "region of Myc bound", "value": "specifically binds to a 402-412 region of Myc"}]}
